Data reported in ChEMBL document CHEMBL4680080 (J Med Chem, 2016).
In brackets after ≈: the same amount, converted by molar mass.

Legend:
[1] = Stability in bile of fistula Wistar-Han rat model assessed as drug recovery of unmodified compound at 60 umol/kg, iv by HPLC-ES-MS/MS analysis; assay type: ADME, organism-based; conditions: at 60 µmol/kg, read-out: Drug recovery
[2] = Drug metabolism in liver of fistula Wistar-Han rat model assessed as drug recovery of taurine conjugate at 60 umol/kg, iv by HPLC-ES-MS/MS analysis; assay type: ADME, organism-based; conditions: in vivo, dose 60 µmol/kg
[3] = Stability in fistula Wistar-Han rat model assessed as drug stability in intestinal bacteria at 60 umol/kg, iv by HPLC-ES-MS/MS analysis; assay type: ADME, organism-based, Intestine; conditions: in vivo, at 60 µmol/kg
[4] = physchem; conditions: water
[5] = Drug metabolism in bile of fistula Wistar-Han rat model assessed as taurine conjugate formation at 60 umol/kg, iv by HPLC-ES-MS/MS analysis; assay type: ADME, organism-based; conditions: in vivo, dose 60 µmol/kg

Structure (SMILES)	dose excreted [1]	Drug metabolism [2]	Stabilty [3]	solubility [4]	Drug metabolism [5]
CC[C@H]1[C@@H](O)[C@@H]2[C@H]([C@@H](O)C[C@]3(C)[C@@H]([C@H](C)CCC(=O)O)CC[C@@H]23)[C@@]2(C)CC[C@@H](O)C[C@@H]12	50%	Metabolite_Notdetected	Stable	150 µM (≈ 65.5 µg/mL)	–
C[C@H](CCC(=O)O)[C@H]1CC[C@H]2[C@@H]3[C@H](O)C[C@@H]4C[C@H](O)CC[C@]4(C)[C@H]3CC[C@]12C [CHENODIOL]	–	–	–	–	Metabolite_Detected
C[C@H](CCC(=O)O)[C@H]1CC[C@H]2[C@@H]3[C@H](O)C[C@@H]4C[C@H](O)CC[C@]4(C)[C@H]3C[C@H](O)[C@]12C [CHOLIC ACID]	10%	–	–	–	–
CC[C@H]1[C@@H](O)[C@@H]2[C@H](CC[C@]3(C)[C@@H]([C@H](C)CCC(=O)O)CC[C@@H]23)[C@@]2(C)CC[C@@H](O)C[C@@H]12 [OBETICHOLIC ACID]	–	–	–	9 µM (≈ 3.79 µg/mL)	Metabolite_Detected
C[C@H](CCC(=O)O)[C@H]1CC[C@H]2[C@@H]3[C@@H](O)C[C@@H]4C[C@H](O)CC[C@]4(C)[C@H]3CC[C@]12C [URSODIOL]	–	–	–	7 µM (≈ 2.75 µg/mL)	Metabolite_Detected
